{
  "source": "patent US20250243196A1",
  "about": "“CITRON KINASE INHIBITORS” (The Cleveland Clinic Foundation, priority 2021, published 2025)",
  "format_in_all_cases": "biochemical",
  "key": {"[1]": {"biological_target": "Mnk2 (Homo sapiens (Human), UniProt Q9HBH9)", "sequence (Q9HBH9 whole entry)": "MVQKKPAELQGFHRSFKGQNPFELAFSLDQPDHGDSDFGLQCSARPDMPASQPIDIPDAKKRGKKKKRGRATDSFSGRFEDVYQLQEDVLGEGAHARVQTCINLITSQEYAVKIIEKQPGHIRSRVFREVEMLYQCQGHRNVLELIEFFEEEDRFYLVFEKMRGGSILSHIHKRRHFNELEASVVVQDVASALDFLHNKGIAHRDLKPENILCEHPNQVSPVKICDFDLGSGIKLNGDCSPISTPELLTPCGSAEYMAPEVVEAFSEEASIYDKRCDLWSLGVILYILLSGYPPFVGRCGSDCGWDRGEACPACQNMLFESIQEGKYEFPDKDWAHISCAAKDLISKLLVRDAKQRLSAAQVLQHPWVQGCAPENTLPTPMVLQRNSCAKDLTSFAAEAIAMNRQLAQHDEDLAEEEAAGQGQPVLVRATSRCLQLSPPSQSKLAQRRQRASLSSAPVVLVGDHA", "assay": "KinaseProfiler radiometric assay (14-664KP)", "conditions": "mean of at least two independent experiments", "excerpt": "In another aspect, disclosed is a method of inhibiting citron kinase in a sample, comprising contacting the sample with a compound described herein (e.g., a compound of formula (I) or a pharmaceutically acceptable salt thereof), or a pharmaceutical composition described herein (e.g., a pharmaceutical composition comprising a compound of formula (I) or a pharmaceutically acceptable salt thereof), in an amount effective to inhibit citron kinase. In some embodiments, the step of contacting the sample with the compound comprises administering the compound to a subject (e.g., a subject) suffering from cancer. Methods of determining kinase inhibition are well known in the art. For example, kinase activity of an enzyme and the inhibitory capacity of a test compound can be determined by measuring enzyme specific phosphorylation of a substrate. Commercial assays and kits can be employed. For example, kinase inhibition can be determined using a radiometric binding assay, such as using KinaseProfiler™ technology (Eurofins Discovery). This assay method directly detects product formation without the use of modified substrates or coupling enzymes. […]\nThe effect of various compounds on the inhibition of other kinases has also been determined. Table 2 reports measured IC50 values; value units are nanomolar inhibition."}, "[2]": {"biological_target": "Aurora-C(h) (Homo sapiens (Human), UniProt Q9UQB9)", "assay": "KinaseProfiler panel", "conditions": "activity remaining"}, "[3]": {"biological_target": "BTK(h) (Homo sapiens (Human), UniProt Q06187)", "assay": "KinaseProfiler panel", "design": "dose or concentration left out as unconfirmed", "conditions": "activity remaining"}, "[4]": {"biological_target": "CaMKK1(h) (Homo sapiens (Human), UniProt Q8N5S9)", "assay": "KinaseProfiler panel", "design": "dose or concentration left out as unconfirmed", "conditions": "activity remaining"}, "[5]": {"biological_target": "CDKL4(h) (Homo sapiens (Human), UniProt Q5MAI5)", "sequence (Q5MAI5 whole entry)": "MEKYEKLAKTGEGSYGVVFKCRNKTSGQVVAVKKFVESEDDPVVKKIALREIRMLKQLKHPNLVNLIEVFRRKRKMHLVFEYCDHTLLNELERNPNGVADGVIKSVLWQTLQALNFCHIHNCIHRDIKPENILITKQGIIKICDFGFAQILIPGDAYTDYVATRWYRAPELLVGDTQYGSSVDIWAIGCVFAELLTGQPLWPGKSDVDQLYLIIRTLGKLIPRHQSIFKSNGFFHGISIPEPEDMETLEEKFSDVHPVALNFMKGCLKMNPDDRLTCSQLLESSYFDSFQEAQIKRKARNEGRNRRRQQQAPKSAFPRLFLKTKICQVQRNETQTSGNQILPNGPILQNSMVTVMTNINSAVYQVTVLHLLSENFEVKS", "assay": "KinaseProfiler panel", "design": "dose or concentration left out as unconfirmed", "conditions": "activity remaining"}, "[6]": {"biological_target": "cKit(h) (Homo sapiens (Human), UniProt P10721)", "assay": "KinaseProfiler panel", "design": "dose or concentration left out as unconfirmed", "conditions": "activity remaining"}, "[7]": {"biological_target": "DCAMKL1(h) (Homo sapiens (Human), UniProt O15075)", "assay": "KinaseProfiler panel", "design": "dose or concentration left out as unconfirmed", "conditions": "activity remaining"}, "[8]": {"biological_target": "DMPK(h) (Homo sapiens (Human), UniProt Q09013)", "assay": "KinaseProfiler panel", "design": "dose or concentration left out as unconfirmed", "conditions": "activity remaining"}, "[9]": {"biological_target": "LATS1(h) (Homo sapiens (Human), UniProt O95835)", "assay": "KinaseProfiler panel", "design": "dose or concentration left out as unconfirmed", "conditions": "activity remaining"}, "[10]": {"biological_target": "LIMK2(h) (Homo sapiens (Human), UniProt P53671)", "assay": "KinaseProfiler panel", "design": "dose or concentration left out as unconfirmed", "conditions": "activity remaining"}, "[11]": {"biological_target": "MAP4K5(h) (Homo sapiens (Human), UniProt Q9Y4K4)", "assay": "KinaseProfiler panel", "design": "dose or concentration left out as unconfirmed", "conditions": "activity remaining"}, "[12]": {"biological_target": "MEK1(h) (Homo sapiens (Human), UniProt Q02750)", "sequence (Q02750 whole entry)": "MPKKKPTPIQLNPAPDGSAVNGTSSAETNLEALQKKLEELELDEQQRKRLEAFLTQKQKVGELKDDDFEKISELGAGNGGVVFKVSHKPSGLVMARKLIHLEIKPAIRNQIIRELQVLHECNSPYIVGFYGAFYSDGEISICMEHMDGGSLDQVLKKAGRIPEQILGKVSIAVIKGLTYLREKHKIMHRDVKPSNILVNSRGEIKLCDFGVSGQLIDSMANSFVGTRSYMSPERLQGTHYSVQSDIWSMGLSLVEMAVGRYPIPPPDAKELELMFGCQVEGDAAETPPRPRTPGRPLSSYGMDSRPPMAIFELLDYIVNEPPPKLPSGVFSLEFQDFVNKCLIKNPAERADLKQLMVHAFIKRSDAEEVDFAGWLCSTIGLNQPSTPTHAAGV", "assay": "KinaseProfiler panel", "design": "dose or concentration left out as unconfirmed", "conditions": "activity remaining"}, "[13]": {"biological_target": "MLCK(h) (Homo sapiens (Human), UniProt Q15746)", "assay": "KinaseProfiler panel", "design": "dose or concentration left out as unconfirmed", "conditions": "activity remaining"}, "[14]": {"biological_target": "NEK7(h) (Homo sapiens (Human), UniProt Q8TDX7)", "sequence (Q8TDX7 whole entry)": "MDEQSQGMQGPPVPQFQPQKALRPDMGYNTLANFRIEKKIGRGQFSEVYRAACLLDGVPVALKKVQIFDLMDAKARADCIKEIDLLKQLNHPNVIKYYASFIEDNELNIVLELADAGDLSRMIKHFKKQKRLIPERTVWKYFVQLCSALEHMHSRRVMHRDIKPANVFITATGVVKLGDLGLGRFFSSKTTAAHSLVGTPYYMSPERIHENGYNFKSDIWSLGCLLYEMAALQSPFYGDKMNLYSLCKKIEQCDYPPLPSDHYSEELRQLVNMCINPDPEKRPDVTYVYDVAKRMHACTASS", "assay": "KinaseProfiler panel", "design": "dose or concentration left out as unconfirmed", "conditions": "activity remaining"}, "[15]": {"biological_target": "PI3 Kinase (p110b/p85a)(h) (Homo sapiens (Human), UniProt P42338)", "assay": "KinaseProfiler panel", "design": "dose or concentration left out as unconfirmed", "conditions": "activity remaining"}, "[16]": {"biological_target": "PI3KC2g(h) (Homo sapiens (Human), UniProt O75747)", "assay": "KinaseProfiler panel", "conditions": "activity remaining"}, "[17]": {"biological_target": "PKCη(h) (Homo sapiens (Human), UniProt P24723)", "sequence (P24723 whole entry)": "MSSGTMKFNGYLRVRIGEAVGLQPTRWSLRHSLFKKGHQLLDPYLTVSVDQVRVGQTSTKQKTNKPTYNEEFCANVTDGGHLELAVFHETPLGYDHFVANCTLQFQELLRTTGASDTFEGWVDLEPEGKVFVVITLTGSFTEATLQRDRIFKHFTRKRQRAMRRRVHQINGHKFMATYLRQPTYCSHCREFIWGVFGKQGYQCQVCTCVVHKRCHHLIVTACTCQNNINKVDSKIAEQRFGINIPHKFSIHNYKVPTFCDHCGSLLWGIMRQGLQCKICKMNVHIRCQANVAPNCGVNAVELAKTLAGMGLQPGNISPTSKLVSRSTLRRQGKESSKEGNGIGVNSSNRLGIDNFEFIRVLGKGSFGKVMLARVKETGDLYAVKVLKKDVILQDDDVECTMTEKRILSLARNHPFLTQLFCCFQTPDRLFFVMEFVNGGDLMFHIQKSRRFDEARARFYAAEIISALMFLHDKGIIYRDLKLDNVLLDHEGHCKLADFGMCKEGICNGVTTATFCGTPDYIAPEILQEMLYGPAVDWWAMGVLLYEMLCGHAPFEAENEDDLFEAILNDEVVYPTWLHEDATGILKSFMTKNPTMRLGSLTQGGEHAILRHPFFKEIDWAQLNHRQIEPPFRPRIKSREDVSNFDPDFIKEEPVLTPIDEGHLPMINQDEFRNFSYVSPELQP", "assay": "KinaseProfiler panel", "design": "dose or concentration left out as unconfirmed", "conditions": "activity remaining"}, "[18]": {"biological_target": "PKCι(h) (Homo sapiens (Human), UniProt P41743)", "sequence (P41743 whole entry)": "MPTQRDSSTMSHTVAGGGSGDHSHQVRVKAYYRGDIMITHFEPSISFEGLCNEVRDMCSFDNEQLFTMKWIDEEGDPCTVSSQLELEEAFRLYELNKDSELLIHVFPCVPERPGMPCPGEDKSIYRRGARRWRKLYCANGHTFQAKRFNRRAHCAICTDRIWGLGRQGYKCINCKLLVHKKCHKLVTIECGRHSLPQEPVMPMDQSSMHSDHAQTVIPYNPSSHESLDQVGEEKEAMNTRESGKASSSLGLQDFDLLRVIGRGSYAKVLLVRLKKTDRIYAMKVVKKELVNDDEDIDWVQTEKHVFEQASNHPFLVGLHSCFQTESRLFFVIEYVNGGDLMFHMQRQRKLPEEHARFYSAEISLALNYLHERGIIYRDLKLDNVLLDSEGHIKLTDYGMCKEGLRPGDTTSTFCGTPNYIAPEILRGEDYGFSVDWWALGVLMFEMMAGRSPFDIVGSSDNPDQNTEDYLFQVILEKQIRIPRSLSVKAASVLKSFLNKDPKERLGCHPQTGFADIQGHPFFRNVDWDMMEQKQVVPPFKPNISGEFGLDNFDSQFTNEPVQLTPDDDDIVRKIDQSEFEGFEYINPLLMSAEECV", "assay": "KinaseProfiler panel", "design": "dose or concentration left out as unconfirmed", "conditions": "activity remaining"}, "[19]": {"biological_target": "Plk3(h) (Homo sapiens (Human), UniProt Q9H4B4)", "sequence (Q9H4B4 whole entry)": "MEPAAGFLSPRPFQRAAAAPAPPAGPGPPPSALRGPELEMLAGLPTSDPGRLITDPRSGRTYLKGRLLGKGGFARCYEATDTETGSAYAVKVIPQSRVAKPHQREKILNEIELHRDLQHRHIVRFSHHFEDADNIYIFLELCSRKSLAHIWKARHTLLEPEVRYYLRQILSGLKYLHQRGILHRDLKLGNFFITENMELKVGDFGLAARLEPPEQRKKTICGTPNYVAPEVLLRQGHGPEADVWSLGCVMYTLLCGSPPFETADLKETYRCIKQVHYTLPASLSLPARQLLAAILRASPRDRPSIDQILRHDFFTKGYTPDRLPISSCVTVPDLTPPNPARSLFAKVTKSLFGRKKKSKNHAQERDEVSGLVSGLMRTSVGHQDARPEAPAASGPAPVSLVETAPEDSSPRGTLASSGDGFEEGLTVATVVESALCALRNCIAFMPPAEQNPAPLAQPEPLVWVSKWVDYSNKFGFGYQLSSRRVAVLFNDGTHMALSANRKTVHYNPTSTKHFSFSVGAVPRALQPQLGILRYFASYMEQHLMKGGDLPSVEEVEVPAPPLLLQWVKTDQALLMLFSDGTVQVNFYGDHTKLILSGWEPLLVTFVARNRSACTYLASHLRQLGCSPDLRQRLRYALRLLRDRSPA", "assay": "KinaseProfiler panel", "design": "dose or concentration left out as unconfirmed", "conditions": "activity remaining"}, "[20]": {"biological_target": "SIK3(h) (Homo sapiens (Human), UniProt Q9Y2K2)", "assay": "KinaseProfiler panel", "design": "dose or concentration left out as unconfirmed", "conditions": "activity remaining"}, "[21]": {"biological_target": "TAO2(h) (Homo sapiens (Human), UniProt Q9UL54)", "assay": "KinaseProfiler panel", "conditions": "activity remaining"}, "[22]": {"biological_target": "TAO3(h) (Homo sapiens (Human), UniProt Q9H2K8)", "assay": "KinaseProfiler panel", "design": "dose or concentration left out as unconfirmed", "conditions": "activity remaining"}, "[23]": {"biological_target": "TBK1(h) (Homo sapiens (Human), UniProt Q9UHD2)", "assay": "KinaseProfiler panel", "conditions": "activity remaining"}, "[24]": {"biological_target": "TTK(h) (Homo sapiens (Human), UniProt P33981)", "sequence (P33981 whole entry)": "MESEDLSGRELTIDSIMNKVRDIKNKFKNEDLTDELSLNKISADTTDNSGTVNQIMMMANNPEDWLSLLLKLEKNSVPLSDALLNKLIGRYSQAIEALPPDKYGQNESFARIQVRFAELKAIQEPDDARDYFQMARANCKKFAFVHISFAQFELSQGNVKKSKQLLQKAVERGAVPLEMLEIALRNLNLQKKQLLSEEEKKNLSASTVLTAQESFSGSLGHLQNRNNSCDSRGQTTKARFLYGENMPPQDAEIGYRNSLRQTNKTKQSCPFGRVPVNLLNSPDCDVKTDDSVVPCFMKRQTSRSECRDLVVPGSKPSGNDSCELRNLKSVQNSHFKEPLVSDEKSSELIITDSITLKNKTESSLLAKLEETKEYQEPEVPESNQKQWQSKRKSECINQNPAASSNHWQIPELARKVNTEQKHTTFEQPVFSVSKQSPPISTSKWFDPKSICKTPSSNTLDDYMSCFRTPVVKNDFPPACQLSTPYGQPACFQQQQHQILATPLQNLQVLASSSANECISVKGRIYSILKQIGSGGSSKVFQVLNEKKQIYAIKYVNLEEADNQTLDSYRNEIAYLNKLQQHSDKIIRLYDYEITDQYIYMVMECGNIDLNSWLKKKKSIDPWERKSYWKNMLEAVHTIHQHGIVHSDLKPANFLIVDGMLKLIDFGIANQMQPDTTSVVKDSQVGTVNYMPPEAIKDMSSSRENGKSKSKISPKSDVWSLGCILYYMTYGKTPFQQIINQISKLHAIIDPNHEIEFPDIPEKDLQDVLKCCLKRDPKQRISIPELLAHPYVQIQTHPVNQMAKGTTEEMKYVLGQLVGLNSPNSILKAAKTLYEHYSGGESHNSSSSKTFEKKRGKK", "assay": "KinaseProfiler panel", "design": "dose or concentration left out as unconfirmed", "conditions": "activity remaining"}, "[25]": {"biological_target": "ULK2(h) (Homo sapiens (Human), UniProt Q8IYT8)", "assay": "KinaseProfiler panel", "design": "dose or concentration left out as unconfirmed", "conditions": "activity remaining"}, "[26]": {"biological_target": "ZAP-70(h) (Homo sapiens (Human), UniProt P43403)", "sequence (P43403 whole entry)": "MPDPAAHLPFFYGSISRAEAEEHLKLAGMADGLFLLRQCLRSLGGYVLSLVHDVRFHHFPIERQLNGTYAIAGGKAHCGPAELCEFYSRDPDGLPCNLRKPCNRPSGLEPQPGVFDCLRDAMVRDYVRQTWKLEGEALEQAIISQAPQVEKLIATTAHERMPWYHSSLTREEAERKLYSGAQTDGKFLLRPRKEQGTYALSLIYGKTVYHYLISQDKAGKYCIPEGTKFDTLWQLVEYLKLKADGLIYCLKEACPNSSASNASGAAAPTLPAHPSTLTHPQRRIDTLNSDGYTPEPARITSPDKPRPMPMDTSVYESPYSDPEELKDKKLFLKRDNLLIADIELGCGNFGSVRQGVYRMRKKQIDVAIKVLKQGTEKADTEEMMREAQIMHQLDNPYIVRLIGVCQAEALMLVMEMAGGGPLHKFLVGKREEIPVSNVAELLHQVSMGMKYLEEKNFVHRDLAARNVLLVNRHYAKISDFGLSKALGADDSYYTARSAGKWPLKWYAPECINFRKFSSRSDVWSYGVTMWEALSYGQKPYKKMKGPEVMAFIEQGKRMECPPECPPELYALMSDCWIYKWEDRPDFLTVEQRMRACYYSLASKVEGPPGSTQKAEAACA", "assay": "KinaseProfiler panel", "design": "dose or concentration left out as unconfirmed", "conditions": "activity remaining"}},
  "data": [
    {"smiles": "Cc1cc2c(-c3ccc(NC(=O)[C@H](N)CC(C)(C)C)cc3C)ccnc2[nH]1", "note": "[Compound F-90, (2R)-2-Amino-4,4-dimethyl-N-[3-methyl-4-(2-methyl-1H-pyrrolo[2,3-b]pyridin-4-yl)phenyl]pentanamide]", "values": [
      {"measurement": "IC50", "setting": "[1]", "value": 2180, "unit": "nM"},
      {"measurement": "% Activity", "setting": "[2]", "value": 94, "unit": "%"},
      {"measurement": "% Activity", "setting": "[3]", "value": 122, "unit": "%"},
      {"measurement": "% Activity", "setting": "[4]", "value": 89, "unit": "%"},
      {"measurement": "% Activity", "setting": "[5]", "value": 104, "unit": "%"},
      {"measurement": "% Activity", "setting": "[6]", "value": 85, "unit": "%"},
      {"measurement": "% Activity", "setting": "[7]", "value": 95, "unit": "%"},
      {"measurement": "% Activity", "setting": "[8]", "value": 93, "unit": "%"},
      {"measurement": "% Activity", "setting": "[9]", "value": 90, "unit": "%"},
      {"measurement": "% Activity", "setting": "[10]", "value": 72, "unit": "%"},
      {"measurement": "% Activity", "setting": "[11]", "value": 92, "unit": "%"},
      {"measurement": "% Activity", "setting": "[12]", "value": 101, "unit": "%"},
      {"measurement": "% Activity", "setting": "[13]", "value": 98, "unit": "%"},
      {"measurement": "% Activity", "setting": "[14]", "value": 88, "unit": "%"},
      {"measurement": "% Activity", "setting": "[15]", "value": 102, "unit": "%"},
      {"measurement": "% Activity", "setting": "[16]", "value": 103, "unit": "%"},
      {"measurement": "% Activity", "setting": "[17]", "value": 118, "unit": "%"},
      {"measurement": "% Activity", "setting": "[18]", "value": 110, "unit": "%"},
      {"measurement": "% Activity", "setting": "[19]", "value": 100, "unit": "%"},
      {"measurement": "% Activity", "setting": "[20]", "value": 105, "unit": "%"},
      {"measurement": "% Activity", "setting": "[21]", "value": 90, "unit": "%"},
      {"measurement": "% Activity", "setting": "[22]", "value": 100, "unit": "%"},
      {"measurement": "% Activity", "setting": "[23]", "value": 100, "unit": "%"},
      {"measurement": "% Activity", "setting": "[24]", "value": 102, "unit": "%"},
      {"measurement": "% Activity", "setting": "[25]", "value": 98, "unit": "%"},
      {"measurement": "% Activity", "setting": "[26]", "value": 71, "unit": "%"}
    ]}
  ]
}
